44 compounds from PubChem BioAssay AID844 (SRMLSC, 2007) can be followed below.

Activity calls are given as the source filed them. The rule behind the calls is not given here.

The test system of the assay is MRP1 cells, doxorubicin viability shift, 10 uM compound. Kind of assay: viability protection against doxorubicin, MRP-1 line – cell-based, doxorubicin EC50 shift, dose response (AID 844). The settings on record: for EC50: measured here: doxorubicin EC50 with compound.

Take `CC1=NN(c2ccc(C)cc2C)C(=O)C1C(c1ccccc1O)C1C(=O)N(c2ccc(C)cc2C)N=C1C` (stereo not drawn): the fold increase in Dox EC50 was 0.71 (inactive) and the EC50 was 3.81 µM.

As for `Cc1nnc(NC(=O)c2ccccc2Br)s1`, the fold increase in Dox EC50 is 1.05 (inactive) and the EC50 came to 5.69 µM.

Regarding `COc1ccc(/C=C/C(=O)NCc2cnn(C)c2C)cc1COc1ccc(Br)cc1`, the fold increase in Dox EC50 is 0.68 (inactive) and the EC50 was found to be 3.7 µM.

`Cc1ccc(S(=O)(=O)N/N=C\c2cn(-c3ccccc3)nc2-c2ccccc2)cc1`: the fold increase in Dox EC50 was 1.38 (inactive) and the EC50 was found to be 7.44 µM.

Take `CCC(Sc1nc(-c2ccccc2)c(C#N)c(=O)[nH]1)C(=O)Nc1cc(C)on1` (stereo not drawn): the fold increase in Dox EC50 was 1.56 and the EC50 stood at 8.41 µM.

As to `O=C(N/N=C/c1ccccn1)c1cc(-c2ccc3ccccc3c2)n[nH]1`, the fold increase in Dox EC50 is 0.75 (inactive) and the EC50 is 4.04 µM.

For the compound `O=C(c1ccco1)N1CCN=C1SCc1ccc(F)cc1`, the fold increase in Dox EC50 is 0.87 (inactive) and the EC50 was determined as 4.71 µM.

Regarding `Brc1cc2c(cc1COc1ccc(-c3nn[nH]n3)cc1)OCO2`, the fold increase in Dox EC50 was 1.73 and the EC50 was 9.31 µM.

As to `O=C(NC(=S)Nc1ccccn1)c1cc(-c2ccccc2)nc2ccccc12`, the fold increase in Dox EC50 is 0.91 (inactive) and the EC50 worked out at 4.93 µM.

Consider `COc1ccc(NC(=O)C(=O)N/N=C/c2cc(C)n(-c3cccc(Cl)c3Cl)c2C)c(OC)c1`, for which the fold increase in Dox EC50 was 1.43 (inactive) and the EC50 was determined as 7.74 µM.

In the case of `CC(C)Oc1ccc(-c2nn(-c3ccccc3)cc2/C=c2\sc3ncnn3c2=O)cc1`, the fold increase in Dox EC50 was 0.82 (inactive) and the EC50 amounted to 4.4 µM.

For `Cc1ccc(-c2cc(C(F)F)nc(NCc3cccnc3)n2)cc1`, the fold increase in Dox EC50 was 0.52 (inactive) and the EC50 turned out to be 2.81 µM.

On to `COc1ccc(C(=O)NCc2ccc3c(c2)OCO3)cc1S(=O)(=O)N(C)Cc1ccccc1`, for which the fold increase in Dox EC50 is 0.75 (inactive) and the EC50 was 4.08 µM.

For the compound `O=C(CC(=O)N/N=C/c1ccccc1O)NCc1cccnc1`, the fold increase in Dox EC50 is 0.39 (inactive) and the EC50 worked out at 2.08 µM.

For `Cc1nc2c(ccc3nc(NC(=O)C(c4ccccc4)c4ccccc4)sc32)s1`, the fold increase in Dox EC50 is 0.84 (inactive) and the EC50 stood at 4.51 µM.

Regarding `Cc1c(C)n(C)c2ccc(C(=O)NCc3cccs3)cc12`, the fold increase in Dox EC50 is 1.06 (inactive) and the EC50 is 5.75 µM.

Consider `COc1ccc(-c2nnc(SC(C)C(=O)Nc3cccc(Cl)c3)o2)cc1` (stereo not drawn), for which the fold increase in Dox EC50 was 0.74 (inactive) and the EC50 is 4 µM.

For `COc1ccc(NC(=O)Cn2cc(C(=O)c3ccco3)c3ccccc32)cc1`, the fold increase in Dox EC50 was 0.88 (inactive) and the EC50 came out at 4.74 µM.

On to `Cc1onc(-c2ccccc2)c1C(=O)Nc1nnc(N(C)Cc2ccccc2)s1`, for which the fold increase in Dox EC50 was 0.64 (inactive) and the EC50 was 3.46 µM.

As for `Cc1ccc(N2C(=O)C3C(c4ccccc4)(C2=O)C3(c2ccccc2)c2ccccc2)cc1` (stereo not drawn), the fold increase in Dox EC50 was 0.22 (inactive) and the EC50 was 1.16 µM.

On to `CCn1c(SCc2ccc(Cl)cc2)nc2nc3c(cc2c1=O)CCCC3`, for which the fold increase in Dox EC50 was 0.77 (inactive) and the 50% effective concentration (EC50) worked out at 4.17 µM.

As to `COc1cc(SC)ccc1C(=O)NCCOc1ccc(Cl)cc1`, the fold increase in Dox EC50 is 1.36 (inactive) and the EC50 was 7.36 µM.

In the case of `COc1ccc(-n2c(SCC(=O)Nc3ccccc3)nc3c(c2=O)SCC3)cc1`, the fold increase in Dox EC50 was 0.22 (inactive) and the EC50 came to 1.18 µM.

In the case of `COc1ccc(C(=O)Nc2ccccc2Cc2ccccc2)c(OC)c1`, the fold increase in Dox EC50 was 0.66 (inactive) and the EC50 was 3.54 µM.

For the compound `Cc1cc(C(=O)COC(=O)c2ccc3c(c2)OCO3)c(C)n1Cc1cccs1`, the fold increase in Dox EC50 is 1.06 (inactive) and the EC50 stood at 5.7 µM.

In the case of `Cc1ccc(S(=O)(=O)N2CCC(C(=O)N[C@@H](C)C(=O)Nc3ccc4c(c3)OCO4)CC2)cc1`, the fold increase in Dox EC50 was 1.43 (inactive) and the EC50 stood at 7.7 µM.

For the compound `Cc1ccnc(NC(=O)COc2ccc3oc4c(c3c2)CCCC4)c1`, the fold increase in Dox EC50 is 0.78 (inactive) and the EC50 is 4.21 µM.

With `CNC(=S)Nc1ccc(C23CC4CC(CC(C4)C2)C3)cc1`, the fold increase in Dox EC50 was 0.7 (inactive) and the EC50 was 3.78 µM.

Regarding `Cc1cccc(N2CCN(C(=O)c3cc4c(=O)n(C)c5ccccc5c4n3C)CC2)c1C`, the fold increase in Dox EC50 was 0.08 (inactive) and the EC50 worked out at 0.44 µM.

On to `O=C(Nc1ccc(C2CC2(Cl)Cl)cc1)c1ccccc1Br` (stereo not drawn), for which the fold increase in Dox EC50 was 1.6 and the EC50 amounted to 8.66 µM.

Turning to `O=C(NCc1ccccn1)c1cc(-c2ccc(-c3ccccc3)cc2)nc2ccccc12`, the fold increase in Dox EC50 is 0.57 (inactive) and the EC50 was 3.1 µM.

`Cc1cc(NC(=O)c2cc(C(C)C)on2)nn1Cc1ccc(Cl)cc1`: the fold increase in Dox EC50 is 1.35 (inactive) and the EC50 is 7.27 µM.

For the compound `O=c1cc(CN2CCN(c3cccc(Cl)c3)CC2)c2cc3c(cc2o1)CCCC3`, the fold increase in Dox EC50 is 0.74 (inactive) and the EC50 is 3.98 µM.

For the compound `CC(SC1=NCCS1)C(=O)Nc1nnc(-c2ccc(Br)cc2)s1` (stereo not drawn), the fold increase in Dox EC50 is 0.97 (inactive) and the EC50 was 5.24 µM.

In the case of `CCOc1ccc(C2CC(c3ccc(CC)cc3)Nc3nc(N)nn32)cc1` (stereo not drawn), the fold increase in Dox EC50 was 1.24 (inactive) and the 50% effective concentration (EC50) worked out at 6.69 µM.

`NC(=O)C1(N2CCCCC2)CCN(C(=O)c2cccn3c(=O)c4cc(Cl)ccc4nc23)CC1`: the fold increase in Dox EC50 was 0.7 (inactive) and the EC50 came out at 3.79 µM.

On to `Cc1ccc2[nH]c(=O)c(C(c3nnnn3C3CCCC3)N3CCCc4ccccc43)cc2c1` (stereo not drawn), for which the fold increase in Dox EC50 is 1 (inactive) and the EC50 is 5.41 µM.

As to `Fc1cccc(-c2cc3nc(-c4ccccc4)cc(N4CCC5(CC4)OCCO5)n3n2)c1`, the fold increase in Dox EC50 was 0.56 (inactive) and the EC50 is 3.04 µM.

Take `COc1ccc(N(C(=O)Cn2cnc3ccccc32)C(C(=O)NC2CCCCC2)c2ccccc2)cc1` (stereo not drawn): the fold increase in Dox EC50 is 0.38 (inactive) and the concentration for a half-maximal effect (EC50) is 2.07 µM.

As to `O=C1CC(c2nc3ccccc3[nH]2)CN1c1cccc(C(F)(F)F)c1` (stereo not drawn), the fold increase in Dox EC50 was 1.24 (inactive) and the EC50 came to 6.7 µM.

Regarding `Clc1ccc(OCc2nnnn2-c2ccccc2)cc1`, the fold increase in Dox EC50 was 0.96 (inactive) and the EC50 is 5.21 µM.

As for `CCc1ccc(-c2csc(NC(=O)Oc3ccccc3)n2)cc1`, the fold increase in Dox EC50 is 1.23 (inactive) and the EC50 came to 6.65 µM.

Regarding `COc1cccc(/C=N/NC(=O)CNC(=O)c2ccc3c(c2)OCCO3)c1O`, the fold increase in Dox EC50 was 0.5 (inactive) and the EC50 worked out at 2.71 µM.

Consider `O=C(Nc1cccc([N+](=O)[O-])c1)c1[nH]ncc1Cl`, for which the fold increase in Dox EC50 was 0.54 (inactive) and the EC50 was determined as 2.89 µM.
